Test results taken from paper PMC10051810, “Modification of the Linker Amino Acid in the Cell-Penetrating Peptide NickFect55 Leads to Enhanced pDNA Transfection for In Vivo Applications” (Pharmaceutics, 2023).

Test system: BALB/c mice
Test: In vivo safety: ALAT and ASAT from blood, body weight
Set-up: species or system mouse
Method: For in vivo studies, the pLuc was mixed with the CPP at CR2 in MilliQ water, wherein the dose per animal was 2.5 mg/kg. After 30 min of incubation at room temperature, glucose was added to the complexes to obtain an isotonic solution with a final injection volume of 336 µL, which was immediately injected intravenously via the tail vein.
In vivo safety was evaluated by measuring the alanine aminotransferase and the aspartate aminotransferase levels from the blood of mice injected with nanoparticles formed between NF55 analogues and pDNA. Additionally, the mice were weighed preinjection with the CPP-pDNA complexes and prior to sacrifice. […]
1 – Alanine aminotransferase 2 – Aspartate aminotransferase

[1] = blood of mice injected i.v. with CPP/pDNA nanoparticles, pLuc 2.5 mg/kg, CR2

In the case of CCCCCCCCCCCCCCCCCC(=O)N[C@@H](C)C(=O)NCC(=O)N[C@@H](Cc1ccc(O)cc1)C(=O)N[C@@H](CC(C)C)C(=O)N[C@@H](CC(C)C)C(=O)NCC(=O)NCCC[C@H](N)C(=O)N[C@H](C(=O)N[C@@H](CC(N)=O)C(=O)N[C@@H](CC(C)C)C(=O)N[C@@H](CCCCN)C(=O)N[C@@H](C)C(=O)N[C@@H](CC(C)C)C(=O)N[C@@H](C)C(=O)N[C@@H](C)C(=O)N[C@@H](CC(C)C)C(=O)N[C@@H](C)C(=O)N[C@@H](CCCCN)C(=O)N[C@@H](C)C(=O)N[C@H](C(=O)N[C@@H](CC(C)C)C(N)=O)[C@@H](C)CC)[C@@H](C)CC [NF55], the “ALAT (alanine aminotransferase)” value [1] is reported as 629, the “ASAT (aspartate aminotransferase)” value [1] is reported as 184 and the Pre-injection weight (weight of mice before injecting with CPP/pDNA nanoparticles) is reported as 26.96 grams. For the same molecule, the Post-injection weight (weight of mice before sacrificing for ex vivo tissue analysis) was 25.35 grams.
